{"source": "patent US12568961B2", "about": "“Multi-layer true spherical chitosan encapsulation of absolute (essential) oils for use in pesticidal activity” (GroPro Corporation, priority 2023, dated 2026)", "key": {"[1]": {"tested_on": "root-knot nematodes (Meloidogyne spp.)", "experiment": "nematocidal activity on hatched root-knot nematodes in Petri dish", "settings": "15 nematodes", "experimental": "The tomato roots infected with root-knot nematodes were washed with running water and were then cut to a size of about 1 cm, after which 50 g of the cut roots were placed in a 500 ml round-bottom flask containing 200 ml of 0.5% sodium hypochloride (NaOCl), stopped with a rubber stopper, and shaken vigorously for 3 min to sterilize the roots and at the same time burst the egg bag. Thereafter, the solution was passed through a sieve in which 200 mesh was superimposed on 500 mesh, and washed with distilled water, so the eggs of the root-knot nematodes from which the NaOCl solution was removed were recovered.\nNext, the eggs of the root-knot nematodes thus recovered were surface-sterilized with 0.5% NaOCl for 10 min, washed thoroughly with sterile distilled water, placed in a phosphate buffer (1%) containing sterilized normal saline, and hatched in an incubator at 25° C.\nThereafter, each mixed solution was diluted to 2000 ppm, 2 to 3 ml thereof was poured into a Petri dish, after which 15 hatched root-knot nematodes were placed in the Petri dish, and nematocidal activity was measured and the results thereof are shown in Table 1 below.\nThe number of root-knot nematodes used for the experiment on the number of killed root-knot nematodes was 15 at each dilution factor."}, "[2]": {"tested_on": "Ae. aegypti, Culex species mosquitoes, Anopheles species mosquitoes", "experiment": "mosquitos and midge adult activity", "assay_type": "in vivo", "settings": "used at 500 to 8,000 ppm"}, "[3]": {"settings": "cited from earlier work"}, "[4]": {"tested_on": "root-knot nematodes (Meloidogyne spp.)", "experiment": "nematocidal activity assessment of plant-derived materials in development", "settings": "geraniol used at 500 to 4,000 ppm"}, "tomato seedlings": {"tested_on": "tomato seedlings", "experiment": "phytotoxicity of geraniol, drenching treatment of potted tomato seedlings", "assay_type": "in vivo", "settings": "1 week after treatment; for Extent of phytotoxicity (0-5) / Phytotoxicity symptom: 50 ml drench, tomato", "text": "Sterilized soil was uniformly mixed, 300 g thereof was then placed in each pot, and tomato seedlings not infected with root-knot nematodes were transplanted thereto."}, "Black Sigatoka": {"tested_on": "Black Sigatoka", "experiment": "field trials against black Sigatoka in bananas", "settings": "applied as tank mixes with tea tree oil", "experimental": "Tea tree oil was used in disclosed experiments and trials as an 54 mulsifiable concentrated formulation. For field trials in bananas, tea tree oil was applied similarly to conventional synthetic fungicides, with mineral oil, surfactants, and/or just water. The following fungicides, registered for use against black sigatoka in bananas, were tested for comparison: azoxystrobin (Bankit 25 SC), trifloxystrobin (Flint, Tega 50 WG), difenoconazole (Score, Sico 25 EC), mancozeb (43 SC Duwest 80 WP), flutriafol (Impact, 125 SC) and tridemorph (Calixin 86 OL)."}, "multiple insects": {"tested_on": "multiple insects", "experiment": "insecticidal activity on multiple insects (oxymatrine)", "assay_type": "in vivo", "settings": "used at 500 to 6,000 ppm"}}, "note": "Marks after values point to notes of the source that are not given here."}
{"compound": "pyrethrin", "values": [{"measurement": "number of killed root-knot nematodes", "setting": "[1]; 2000 ppm, 1 day", "value": 5}, {"measurement": "number of killed root-knot nematodes", "setting": "[1]; 2000 ppm, 2 days", "value": 6}, {"measurement": "number of killed root-knot nematodes", "setting": "[1]; 2000 ppm, 3 days", "value": 11}]}
{"compound": "C/C=C(\\C)C(=O)O[C@H]1C[C@@H](OC(C)=O)[C@@]2(C(=O)OC)CO[C@H]3[C@@H](O)[C@@](C)([C@]45O[C@@]4(C)[C@H]4C[C@@H]5O[C@@H]5OC=C[C@@]54O)[C@H]4[C@]1(CO[C@]4(O)C(=O)OC)[C@@H]32", "note": "[Azadirachtin, azadirachtin]", "values": [{"measurement": "number of killed root-knot nematodes", "setting": "[1]; 2000 ppm, 1 day", "value": 7}, {"measurement": "number of killed root-knot nematodes", "setting": "[1]; 2000 ppm, 2 days", "value": 8}, {"measurement": "number of killed root-knot nematodes", "setting": "[1]; 2000 ppm, 3 days", "value": 10}]}
{"compound": "CC(C)=CCC/C(C)=C/CO", "note": "[Geraniol, 3,7-dimethyl-2,6-octadien-1-ol]", "values": [{"measurement": "number of killed root-knot nematodes", "setting": "[1]; 2000 ppm, 1 day", "value": "15^a"}, {"measurement": "number of killed root-knot nematodes", "setting": "[1]; geraniol 2,000 ppm, 1 day", "value": 15}, {"measurement": "mosquito and midge control", "setting": "[2]", "value": "superior mosquito and midge control was demonstrated without plant phytotoxicity or water toxicology"}, {"measurement": "solubility in water", "setting": "[3]", "value": "insoluble in water"}, {"measurement": "nematocidal control", "setting": "[4]", "value": "superior nematocidal control was demonstrated without plant phytotoxicity"}, {"measurement": "concentrations causing phytotoxicity in tomato seedlings", "setting": "tomato seedlings; drench", "value": "≥ 4,000 ppm"}, {"measurement": "concentrations with no effect on tomato seedlings", "setting": "tomato seedlings; drench", "value": "≤ 3,000 ppm"}, {"measurement": "Extent of phytotoxicity (0-5)", "setting": "tomato seedlings; geraniol 100 ppm", "value": 0}, {"measurement": "Phytotoxicity symptom", "setting": "tomato seedlings; geraniol 100 ppm", "value": "No"}, {"measurement": "Extent of phytotoxicity (0-5)", "setting": "tomato seedlings; geraniol 200 ppm", "value": 0}, {"measurement": "Phytotoxicity symptom", "setting": "tomato seedlings; geraniol 200 ppm", "value": "No"}, {"measurement": "Extent of phytotoxicity (0-5)", "setting": "tomato seedlings; geraniol 330 ppm", "value": 0}, {"measurement": "Phytotoxicity symptom", "setting": "tomato seedlings; geraniol 330 ppm", "value": "No"}, {"measurement": "Extent of phytotoxicity (0-5)", "setting": "tomato seedlings; geraniol 500 ppm", "value": 0}, {"measurement": "Phytotoxicity symptom", "setting": "tomato seedlings; geraniol 500 ppm", "value": "No"}, {"measurement": "Extent of phytotoxicity (0-5)", "setting": "tomato seedlings; geraniol 1,000 ppm", "value": 0}, {"measurement": "Phytotoxicity symptom", "setting": "tomato seedlings; geraniol 1,000 ppm", "value": "No"}, {"measurement": "Extent of phytotoxicity (0-5)", "setting": "tomato seedlings; geraniol 2,000 ppm", "value": 0}, {"measurement": "Phytotoxicity symptom", "setting": "tomato seedlings; geraniol 2,000 ppm", "value": "No"}, {"measurement": "Extent of phytotoxicity (0-5)", "setting": "tomato seedlings; geraniol 3,000 ppm", "value": 0}, {"measurement": "Phytotoxicity symptom", "setting": "tomato seedlings; geraniol 3,000 ppm", "value": "No"}, {"measurement": "Extent of phytotoxicity (0-5)", "setting": "tomato seedlings; geraniol 4,000 ppm", "value": 5}, {"measurement": "Phytotoxicity symptom", "setting": "tomato seedlings; geraniol 4,000 ppm", "value": "Withered"}, {"measurement": "Extent of phytotoxicity (0-5)", "setting": "tomato seedlings; geraniol 5,000 ppm", "value": 5}, {"measurement": "Phytotoxicity symptom", "setting": "tomato seedlings; geraniol 5,000 ppm", "value": "Withered"}, {"measurement": "Extent of phytotoxicity (0-5)", "setting": "tomato seedlings; geraniol 10,000 ppm", "value": 5}, {"measurement": "Phytotoxicity symptom", "setting": "tomato seedlings; geraniol 10,000 ppm", "value": "Withered"}, {"measurement": "Extent of phytotoxicity (0-5)", "setting": "tomato seedlings; geraniol 20,000 ppm", "value": 5}, {"measurement": "Phytotoxicity symptom", "setting": "tomato seedlings; geraniol 20,000 ppm", "value": "Withered"}]}
{"compound": "CC1COC(Cn2cncn2)(c2ccc(Oc3ccc(Cl)cc3)cc2Cl)O1", "note": "(centres unmarked) [difenoconazole]", "values": [{"measurement": "control of Black Sigatoka", "setting": "Black Sigatoka", "value": "effectively controlled"}]}
{"compound": "O=C1CCC[C@@H]2[C@H]3CCC[N+]4([O-])CCC[C@@H](CN12)[C@@H]34", "note": "(some centres unmarked) [Oxymatrine, oxymatrine]", "values": [{"measurement": "insecticidal control", "setting": "multiple insects", "value": "superior insecticidal control was demonstrated without plant phytotoxicity"}]}
{"compound": "CON=C(C(=O)OC)c1ccccc1CON=C(C)c1cccc(C(F)(F)F)c1", "note": "[trifloxystrobin]", "values": [{"measurement": "control of Black Sigatoka", "setting": "Black Sigatoka", "value": "effectively controlled"}]}
